According to publication PMC1334386 (PLoS Biology, 2006):

Assays:
[1] = system: HAUSP TRAF-like domain (residues 1–206); test: gel filtration binding assay with HAUSP (residues 1–206); conditions: Superdex-200, 25 mM Tris pH 8.0, 100 mM NaCl, 2 mM DTT, 4 °C, SDS-PAGE/Coomassie, protein alone, no competitor
Description: (§1) Size-exclusion chromatography (gel filtration), using a Superdex-200 column (10/30, Amersham Pharmacia Biotech, Piscataway, New Jersey, United States), was employed to carry out all the in vitro binding assays. Proteins subjected to binding tests were incubated at 4 °C for at least 45 min to allow equilibrium to be reached. The flow rate was 0.5 ml/min, and the buffer contained 25 mM Tris (pH 8.0), 100 mM NaCl, and 2 mM DTT. All fractions were collected at 0.5 ml each. Aliquots of relevant fractions were mixed with SDS sample buffer and subjected to SDS-polyacrylamide gel electrophoresis. The proteins were visualized by Coomassie Blue staining. The column was calibrated with molecular-mass standards.

[2] = biological target: T1, HAUSP TRAF-like domain (residues 53–206) (Homo sapiens, UniProt Q93009); test: gel filtration binding assay of MDM2 fragments with HAUSP TRAF-like domain; conditions: Superdex-200, HAUSP residues 53–206, 25 mM Tris pH 8.0, 100 mM NaCl, 2 mM DTT, 4 °C
T1 construct: GST (N); made in house; host or cells: Escherichia coli BL21(DE3), vector pGEX-2T
Description: as §1

[3] = system: full-length HAUSP; test: gel filtration binding assay of MDM2 with full-length HAUSP; conditions: Superdex-200, 25 mM Tris pH 8.0, 100 mM NaCl, 2 mM DTT, 4 °C
Description: as §1

T1 sequence (Q93009 53-206): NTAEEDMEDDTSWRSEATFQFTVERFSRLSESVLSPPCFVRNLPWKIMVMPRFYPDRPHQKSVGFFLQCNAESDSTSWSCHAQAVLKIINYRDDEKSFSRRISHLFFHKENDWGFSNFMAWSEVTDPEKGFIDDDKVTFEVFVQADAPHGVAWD

MDM2 (residues 170–423): MDM2 fragment, residues 170–423
complex formation with HAUSP (residues 1–206) [1]: form a stable complex

MDM2 (residues 170–432): 33-kDa fragment of MDM2 (residues 170–432)
complex formation with HAUSP TRAF-like domain [2]: formed a stable complex
complex formation with full-length HAUSP [3]: formed a stable complex
